Experimental findings from article PMC5268738, “A sequential multi-target Mps1 phosphorylation cascade promotes spindle checkpoint signaling” (eLife, 2017) are described below.

Experiment [1] has as its system Bub1 S459 phosphorylation in HeLa cells. As to conditions: nocodazole and MG132; reversine 1 µM. On the procedure:
HeLa Tet-On cells were initially purchased from Clontech (Mountain View, CA), and were cultured in Dulbecco’s Modified Eagle Medium (DMEM, Invitrogen, Carlsbad, CA) supplemented with 10% fetal bovine serum and 2 mM L-glutamine. The cells were authenticated by genome sequencing and metaphase chromosome spread, and were routinely checked by 4',6-diamidino-2-phenylindole (DAPI) staining to ascertain that they were free of mycoplasma contamination. For G1/S synchronization, cells were treated with 2 mM thymidine (Sigma, St. Louis, MO) for 14–16 hr. For mitotic arrest, cells were treated with 330 nM or 1 µM nocodazole (Sigma) or 100 nM taxol (Sigma) for 12–14 hr. Other chemicals used in this study were: RO3306 (Sigma) at 20 µM, BI 2536 (Selleck Chemicals, Houston, TX) at 1 µM, MG132 (Selleck Chemicals) at 10 µM, okadaic acid (LC lab, Woburn, MA) at 500 nM, and reversine (Cayman Chemical, Ann Arbor, MI) at 1 µM.

The test system of experiment [2] is N-terminal fragment of Cdc20 (residues 1–170, Cdc20^N). As to the kind of experiment: in vitro pull-down of Mps1-treated Mad1^E–Mad2 by Cdc20^N beads. Format: binding, human. As to conditions: Ni^2+ beads with Cdc20^N170-His6; Mad1 pre-treated with kinase domain of Mps1; anti-Mad1 blot. On the procedure: Expression of Cdc20-His6 proteins containing the N-terminal regions of Cdc20 was induced by 1 mM isopropyl β-D-1-thiogalactopyranoside (IPTG) at 37 °C for 6 h. Harvested pellets were lysed in denaturing lysis buffer (100 mM NaH2PO4, 10 mM Tris-HCl, pH 8.0, 8 M Urea), and incubated overnight by gentle rocking at room temperature. After centrifugation, the supernatants were incubated with pre-equilibrated Ni^2+-NTA beads (Qiagen). Protein-bound beads were washed with 15 volumes of denaturing wash buffer (100 mM NaH2PO4, 10 mM Tris-HCl, pH 6.3, 8 M Urea). The proteins were then eluted with denaturing elution buffer (100 mM NaH2PO4, 10 mM Tris-HCl, pH 4.5, 8 M Urea). The eluted proteins were then dialyzed into the storage buffer (50 mM Tris, pH 8.0, 200 mM NaCl, 5% glycerol, 1 mM β-mercaptoethanol). […]
For kinase assays, 1 μM Cdc20^ΔN60, 40 μM Mad1^E–Mad2, or 400 nM Bub1^ΔK–Bub3 was incubated with 40 nM Bub1, 500 nM Mps1, and/or 50 nM Cdk1–Cyclin B1 at room temperature for 30 min in the kinase buffer (25 mM Tris-HCl, pH 7.7, 100 mM NaCl, 10 mM MgCl2, 5 mM NaF, 20 mM β-glycerophosphate, 0.1 mM Na3VO4 and 1 mM DTT) supplemented with 1 mM ATP. The reaction mixtures were stopped with the appropriate kinase inhibitors for further protein-binding assays, or quenched with the SDS loading buffer and analyzed by Coomassie blue staining or Western blotting. […]

Experiment [3] concerns APC/C^Cdc20. As to the kind of experiment: APC/C^Cdc20 inhibition by MCC components (securin ubiquitination assay). In kind it is biochemical, Xenopus APC/C, human Cdc20. To be noted: Bub1–Mad1 mixture, Cdc20^ΔN60, Mad2^Mono, BubR1^N; reversine 10 μM where used.

SMILES strings stand for the structures.

`c1nc2nc(Nc3ccc(N4CCOCC4)cc3)nc(NC3CCCCC3)c2[nH]1` [reversine, reference compound]: the “Bub1 S459 phosphorylation in mitosis (in words)” value in experiment [1] is reported as “reduced”. The “binding of Mps1-treated Mad1^E–Mad2 to Cdc20^N (in words)” value in experiment [2] is “greatly reduced this interaction”. Besides, in experiment [3], the “APC/C^Cdc20 inhibition by the MCC mixture with Bub1–Mad1 mixture (in words)” value was “greatly weakened APC/C^Cdc20 inhibition by the MCC mixture”.
